This assay addresses T1, Thromboxane A2 receptor (Homo sapiens, UniProt P21731).
T1 sequence (P21731 whole entry): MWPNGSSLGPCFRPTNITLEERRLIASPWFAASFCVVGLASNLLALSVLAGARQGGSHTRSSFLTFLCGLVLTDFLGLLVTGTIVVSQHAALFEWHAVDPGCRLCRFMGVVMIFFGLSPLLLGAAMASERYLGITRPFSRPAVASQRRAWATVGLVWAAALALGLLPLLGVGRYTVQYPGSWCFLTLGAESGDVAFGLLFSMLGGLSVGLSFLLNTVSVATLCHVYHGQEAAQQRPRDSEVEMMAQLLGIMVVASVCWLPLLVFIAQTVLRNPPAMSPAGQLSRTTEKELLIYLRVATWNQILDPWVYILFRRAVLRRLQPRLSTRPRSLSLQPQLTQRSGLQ
Take `O=C(O)C[C@@H]1CCCc2c1n(Cc1ccc(Cl)cc1)c1ccc(F)cc21` [CAS_113243-00-8]: the Ki amounted to 424 nM. For `CCCCC[C@H](O)CC[C@H]1c2cc([nH]n2)[C@@H]1CC=CCCCC(=O)O` [9,11-AzoPGH2] the value was 41 nM; for `CCCCC[C@H](O)/C=C/C1[C@@H](C/C=C\CCCC(=O)O)[C@H]2CO[C@@H]1C2` (some centres undefined) [U46619], 62 nM. `CCCCC[C@H](O)/C=C/C1C[C@H]2C[C@H](S2)[C@@H]1C/C=C\CCCC(=O)O` (some centres undefined) [STA2]: affinity was put at a Ki of 17 nM.

Broadly, the Ki is a measure of affinity in units of concentration, obtained from inhibition or displacement.

The values are drawn from BindingDB's records for PubMed 2530338 (Medical University of South Carolina, 1989).
